This test addresses T1, human PKCθ full length enzyme (Homo sapiens, UniProt Q04759).
T1 construct: human PKCθ full length enzyme (Panvera Cat# P2996); purchased Panvera P2996
In words: PKCθ IMAP Assay. As to conditions: PKCθ 1 nM; ATP 6 μM; peptide 100 nM; DMSO 5%; 25 minutes at room temperature; FP readout; read-out: PKC-Theta Mean IC50. Type of test: biochemical. As for the experimental part:
The materials used include the following: human PKCθ full length enzyme (Panvera Cat# P2996); substrate peptide: 5FAM-RFARKGSLRQKNV-OH (Molecular Devices, RP7032); ATP (Sigma Cat # A2383); DTT (Pierce, 20291); 5× kinase reaction buffer (Molecular Devices, R7209); 5× binding buffer A (Molecular Devices, R7282), 5× binding buffer B (Molecular Devices, R7209); IMAP Beads (Molecular Devices, R7284); and 384-well plates (Corning Costar, 3710).
The reaction buffer was prepared by diluting the 5× stock reaction buffer and adding DTT to obtain a concentration of 3.0 mM. The binding buffer was prepared by diluting the 5× binding buffer A. A master mix solution was prepared using a 90% dilution of the reaction buffer containing 2×ATP (12 uM) and 2× peptide (200 nm). Compounds were diluted in DMSO to 20× of the maximum concentration for the IC50 measurement. 27 μl of the master mix solution for each IC50 curve was added to the first column in a 384-well plate and 3 μl of 20× compound in DMSO was added to each well.
The final concentration of compound was 2× and 10% DMSO. DMSO was added to the rest of the master mix to increase the concentration to 10%. 10 μl of the master mix containing 10% DMSO was added to the rest of the wells on the plate except the 2nd column. 20 μl was transferred from the first column to the 2nd column. The compounds were serially diluted in 2:1 ratio starting from the 2nd column. A 2×(2 nM) PKCθ solution was made in the reaction buffer. 10 μl of the PKCθ solution was added to every well to achieve these final concentrations: PKCθ-1 nM; ATP-6 μM; peptide-100 nM; DMSO-5%. Samples were incubated for 25 minutes at room temperature. The binding reagent was prepared by diluting the beads in 1× binding buffer to 800:1. 50 μl of the binding reagent was added to every well and incubated for 20 minutes. FP was measured using Envision2100 (PerkinElmer Life Sciences). Wells with no ATP and wells with no enzyme were used as controls.
T1 sequence (Q04759 whole entry): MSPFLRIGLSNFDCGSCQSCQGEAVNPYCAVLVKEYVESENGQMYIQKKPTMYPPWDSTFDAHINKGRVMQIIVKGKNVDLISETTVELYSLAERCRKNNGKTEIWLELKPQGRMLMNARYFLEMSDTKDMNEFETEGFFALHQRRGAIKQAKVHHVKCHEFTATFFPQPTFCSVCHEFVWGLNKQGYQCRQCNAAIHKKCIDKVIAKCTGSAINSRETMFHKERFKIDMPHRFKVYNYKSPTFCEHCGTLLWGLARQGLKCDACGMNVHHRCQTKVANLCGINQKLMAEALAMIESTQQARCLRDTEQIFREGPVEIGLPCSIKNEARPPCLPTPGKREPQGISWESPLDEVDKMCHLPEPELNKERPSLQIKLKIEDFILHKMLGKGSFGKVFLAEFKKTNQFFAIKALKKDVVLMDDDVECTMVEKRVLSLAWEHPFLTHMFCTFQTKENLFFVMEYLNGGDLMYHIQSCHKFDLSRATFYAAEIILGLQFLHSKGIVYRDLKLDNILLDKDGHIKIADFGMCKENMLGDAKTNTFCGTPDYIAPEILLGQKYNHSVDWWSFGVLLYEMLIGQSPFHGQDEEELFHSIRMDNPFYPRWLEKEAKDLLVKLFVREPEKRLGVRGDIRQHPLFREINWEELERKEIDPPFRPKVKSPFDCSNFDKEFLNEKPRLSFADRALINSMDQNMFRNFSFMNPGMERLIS
In the case of `Cc1ncc(C#N)c(Nc2ccc3[nH]ccc3c2C)c1-c1ccc(C=O)s1` [Example 69, 5-(5-formylthiophen-2-yl)-6-methyl-4-[(4-methyl-1H-indol-5-yl)amino]pyridine-3-carbonitrile], the IC50 (commonly the concentration at which inhibition is half-maximal) was 0.0048 µM.

Turning to `COc1ccc(-c2c(C)ncc(C#N)c2Nc2ccc3cc[nH]c3c2)cc1OC` [Example 46, 5-(3,4-dimethoxyphenyl)-4-(1H-indol-6-ylamino)-6-methylnicotinonitrile], the IC50 is 11.9 µM. On to `Cc1ncc(C#N)c(Nc2ccc3[nH]ccc3c2C)c1-c1ccc(OCCNCc2cccnc2)cc1` [Example 41, 6-methyl-4-[(4-methyl-1H-indol-5-yl)amino]-5-(4-{2-[(pyridin-3-ylmethyl)amino]ethoxy}phenyl)nicotinonitrile], for which the 50% inhibitory concentration (IC50) turned out to be 0.064 µM. Turning to `Cc1ncc(C#N)c(Nc2ccc3[nH]ccc3c2C)c1-c1ccc(OCCN2CCC(N3CCCC3)CC2)cc1` [Example 26, 6-methyl-4-[(4-methyl-1H-indol-5-yl)amino]-5-{4-[2-(4-pyrrolidin-1-ylpiperidin-1-yl)ethoxy]phenyl}nicotinonitrile], the half-maximal inhibitory concentration (IC50) was 0.031 µM. With `COc1ccc(-c2c(C)ncc(C#N)c2Nc2ccc3[nH]c(C)cc3c2)cc1OC` [Example 48, 5-(3,4-dimethoxyphenyl)-6-methyl-4-[(2-methyl-1H-indol-5-yl)amino]nicotinonitrile] the figure was 0.556 µM; with `Cc1ncc(C#N)c(Nc2ccc3[nH]ccc3c2C)c1-c1ccc(OCCN2CCC(N3CCCCC3)CC2)cc1` [Example 27, 5-{4-[2-(1,4′-bipiperidin-1′-yl)ethoxy]phenyl}-6-methyl-4-[(4-methyl-1H-indol-5-yl)amino]nicotinonitrile], 0.03 µM. With `Cc1ncc(C#N)c(Nc2ccc3[nH]ccc3c2C)c1-c1ccc(OCCNCCN2CCCC2)cc1` [Example 21, 6-methyl-4-[(4-methyl-1H-indol-5-yl)amino]-5-(4-{2-[(2-pyrrolidin-1-ylethyl)amino]ethoxy}phenyl)nicotinonitrile] the figure was 0.026 µM; with `Cc1ncc(C#N)c(Nc2ccc3[nH]ccc3c2)c1-c1cccs1` [Example 65, 4-(1H-indol-5-ylamino)-6-methyl-5-(2-thienyl)nicotinonitrile], 0.08 µM; with `CCc1ncc(C#N)c(Nc2ccc3[nH]ccc3c2C)c1-c1ccc(OC)c(OC)c1` [Example 61, 5-(3,4-dimethoxyphenyl)-6-ethyl-4-[(4-methyl-1H-indol-5-yl)amino]nicotinonitrile], 0.191 µM. As to `COc1ccc(-c2c(C)ncc(C#N)c2Nc2ccc3[nH]ccc3c2)cc1` [Example 54, 4-(1H-indol-5-ylamino)-5-(4-methoxyphenyl)-6-methylnicotinonitrile], the half-maximal inhibitory concentration (IC50) was 0.041 µM. With `Cc1ncc(C#N)c(Nc2ccc3[nH]ccc3c2C)c1-c1ccc(OCCN2CCCNCC2)cc1` [Example 34, 5-{4-[2-(1,4-diazepan-1-yl)ethoxy]phenyl}-6-methyl-4-[(4-methyl-1H-indol-5-yl)amino]nicotinonitrile] the figure was 0.014 µM; with `Cc1ncc(C#N)c(Nc2ccc3[nH]ccc3c2C)c1-c1ccc(OCCN2CCC(CCO)CC2)cc1` [Example 25, 5-(4-{2-[4-(2-hydroxyethyl)piperidin-1-yl]ethoxy}phenyl)-6-methyl-4-[(4-methyl-1H-indol-5-yl)amino]nicotinonitrile], 0.068 µM; with `COc1cccc(-c2c(C)ncc(C#N)c2Nc2ccc3[nH]ccc3c2)c1` [Example 53, 4-(1H-indol-5-ylamino)-5-(3-methoxyphenyl)-6-methylnicotinonitrile], 0.034 µM. Take `Cc1ncc(C#N)c(Nc2ccc3[nH]ccc3c2C)c1-c1ccc(OCCN2CCC(N3CCOCC3)CC2)cc1` [Example 28, 6-methyl-4-[(4-methyl-1H-indol-5-yl)amino]-5-{4-[2-(4-morpholin-4-ylpiperidin-1-yl)ethoxy]phenyl}nicotinonitrile]: the IC50 is 0.028 µM.

With `Cc1ncc(C#N)c(Nc2ccc3[nH]ccc3c2C)c1-c1ccc(OCCN2CCCCC2)cc1` [Example 24, 6-methyl-4-[(4-methyl-1H-indol-5-yl)amino]-5-[4-(2-piperidin-1-ylethoxy)phenyl]nicotinonitrile], the concentration for half-maximal inhibition (IC50) came out at 0.044 µM. As to `Cc1ncc(C#N)c(Nc2ccc3[nH]ccc3c2C)c1-c1ccc(CN2CCN(C)CC2)o1` [Example 68, 6-methyl-4-[(4-methyl-1H-indol-5-yl)amino]-5-{5-[(4-methylpiperazin-1-yl)methyl]furan-2-yl}pyridine-3-carbonitrile], the IC50 stood at 0.02 µM.

As for `Cc1ncc(C#N)c(Nc2ccc3[nH]ccc3c2)c1-c1ccccc1` [Example 50, 4-(1H-indol-5-ylamino)-6-methyl-5-phenylnicotinonitrile], the half-maximal inhibitory concentration (IC50) is 0.05 µM. With `Cc1ncc(C#N)c(Nc2ccc3[nH]ccc3c2C)c1-c1ccc(OCCNCCO)cc1` [Example 17, 5-(4-{2-[(2-hydroxyethyl)amino]ethoxy}phenyl)-6-methyl-4-[(4-methyl-1H-indol-5-yl)amino]nicotinonitrile] the figure was 0.019 µM. With `Cc1ncc(C#N)c(Nc2ccc3[nH]ccc3c2C)c1-c1ccc(C=O)o1` [Example 67, 5-(5-formylfuran-2-yl)-6-methyl-4-[(4-methyl-1H-indol-5-yl)amino]pyridine-3-carbonitrile] the figure was 0.021 µM.

For `Cc1ncc(C#N)c(Nc2ccc3[nH]ccc3c2)c1-c1cccc(CN(C)C)c1` [Example 57, 5-{3-[(dimethylamino)methyl]phenyl}-4-(1H-indol-5-ylamino)-6-methylnicotinonitrile], the 50% inhibitory concentration (IC50) amounted to 0.087 µM.

Regarding `COc1ccc(-c2c(C)ncc(C#N)c2Nc2cc(Cl)c3[nH]ccc3c2C)cc1OC` [Example 64, 4-[(7-chloro-4-methyl-1H-indol-5-yl)amino]-5-(3,4-dimethoxyphenyl)-6-methylnicotinonitrile], the IC50 is 0.084 µM. With `Cc1ncc(C#N)c(Nc2ccc3[nH]ccc3c2C)c1-c1ccc(OCCN2CC(C)NCC2C)cc1` (stereo not shown) [Example 31, 5-{4-[2-(2,5-dimethylpiperazin-1-yl)ethoxy]phenyl}-6-methyl-4-[(4-methyl-1H-indol-5-yl)amino]nicotinonitrile] the figure was 0.042 µM; with `Cc1ncc(C#N)c(Nc2ccc3[nH]ccc3c2C)c1-c1ccc(CN2CCN(C)CC2)s1` [Example 70, 6-methyl-4-[(4-methyl-1H-indol-5-yl)amino]-5-{5-[(4-methylpiperazin-1-yl)methyl]thiophen-2-yl}pyridine-3-carbonitrile], 0.014 µM. With `COc1ccc(-c2c(C)ncc(C#N)c2Nc2ccc3[nH]ccc3c2)cc1OC` [Example 51, 5-(3,4-dimethoxyphenyl)-4-(1H-indol-5-ylamino)-6-methylnicotinonitrile] the figure was 0.031 µM; with `Cc1ncc(C#N)c(Nc2ccc3[nH]ccc3c2C)c1-c1cccc(CN(C)C)c1` [Example 66, 5-{3-[(dimethylamino)methyl]phenyl}-6-methyl-4-[(4-methyl-1H-indol-5-yl)amino]pyridine-3-carbonitrile], 0.042 µM; with `Cc1ncc(C#N)c(Nc2ccc3[nH]ccc3c2C)c1-c1ccc(OCCNCCCO)cc1` [Example 18, 5-(4-{2-[(3-hydroxypropyl)amino]ethoxy}phenyl)-6-methyl-4-[(4-methyl-1H-indol-5-yl)amino]nicotinonitrile], 0.04 µM. As to `Cc1ncc(C#N)c(Nc2ccc3[nH]ccc3c2)c1-c1cc2ccccc2o1` [Example 55, 5-(1-benzofuran-2-yl)-4-(1H-indol-5-ylamino)-6-methylnicotinonitrile], the IC50 worked out at 0.026 µM. For the molecule `COc1ccccc1-c1c(C)ncc(C#N)c1Nc1ccc2[nH]ccc2c1` [Example 52, 4-(1H-indol-5-ylamino)-5-(2-methoxyphenyl)-6-methylnicotinonitrile], the IC50 was 0.25 µM.

As to `Cc1ncc(C#N)c(Nc2ccc3[nH]ccc3c2C)c1-c1ccc(OCCNCc2ccncc2)cc1` [Example 42, 6-methyl-4-[(4-methyl-1H-indol-5-yl)amino]-5-(4-{2-[(pyridin-4-ylmethyl)amino]ethoxy}phenyl)nicotinonitrile], the IC50 is 0.041 µM. The same measure for `Cc1ncc(C#N)c(Nc2ccc3[nH]ccc3c2C)c1-c1ccc(OCCN2CC(C)NC(C)C2)cc1` (stereo not shown) [Example 32, 5-{4-[2-(3,5-dimethylpiperazin-1-yl)ethoxy]phenyl}-6-methyl-4-[(4-methyl-1H-indol-5-yl)amino]nicotinonitrile]: 0.025 µM; for `Cc1ncc(C#N)c(Nc2ccc3[nH]ccc3c2)c1-c1cc2ccccc2s1` [Example 56, 5-(1-benzothiophen-2-yl)-4-(1H-indol-5-ylamino)-6-methylnicotinonitrile]: 0.137 µM.

The values are drawn from patent US20110028455A1, “Indole-substituted 3-cyanopyridines As Kinase Inhibitors” (Wyeth LLC, priority 2007, published 2011).
